Results published in article PMC6848746 (Psychopharmacology, 2019).
Read-outs that look alike come from different tables or passages of the source.

How the values were obtained:
SERT = SERT (Homo sapiens, UniProt P31645); settings: HEK cells expressing cloned transporters, cited from earlier work; for release of preloaded [3H]5-HT: at 100 μM, ref Simmler et al. 2014b, Luethi et al. 2017
5-HT1B = 5-HT1B (Homo sapiens, UniProt P28222); experiment: Radioligand binding
NET [1] = experiment: NET-mediated release of [3H]MPP+ from rat brain synaptosomes; assay type: biochemical; settings: relative to SERT, synaptosomal release
NET [2] = settings: synaptosomal uptake assay; ref Johnson et al. (1991a); cited from earlier work
rats = settings: cited from earlier work
DAT [3] = settings: synaptosomal uptake assay; ref Johnson et al. (1991a); cited from earlier work
α2B = molecular target: T1, α2B (Homo sapiens, UniProt P18089); experiment: Radioligand binding; settings: for fold lower affinity for α2B compared to 2-AI: binding, [3H]rauwolscine
T1 sequence (P18089 1-450): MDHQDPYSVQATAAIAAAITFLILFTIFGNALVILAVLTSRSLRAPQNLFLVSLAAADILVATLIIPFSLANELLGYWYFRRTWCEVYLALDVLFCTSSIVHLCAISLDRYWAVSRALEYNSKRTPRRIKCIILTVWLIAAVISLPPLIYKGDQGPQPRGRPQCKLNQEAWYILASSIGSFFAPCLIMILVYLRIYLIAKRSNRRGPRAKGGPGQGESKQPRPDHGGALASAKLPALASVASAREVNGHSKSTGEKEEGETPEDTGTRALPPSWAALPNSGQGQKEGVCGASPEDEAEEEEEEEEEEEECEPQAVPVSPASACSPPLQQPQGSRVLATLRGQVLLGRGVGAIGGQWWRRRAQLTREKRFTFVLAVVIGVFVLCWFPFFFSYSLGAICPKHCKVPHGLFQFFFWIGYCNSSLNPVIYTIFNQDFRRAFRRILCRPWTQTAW

DAT [4] = molecular target: DAT (Homo sapiens, UniProt Q01959); settings: HEK cells expressing cloned transporters, cited from earlier work; for release of preloaded [3H]DA: at 100 μM, ref Simmler et al. 2014b, Luethi et al. 2017
NET [5] = molecular target: NET (Homo sapiens, UniProt P23975); settings: HEK cells expressing cloned transporters, cited from earlier work; for release of preloaded [3H]NE: at 100 μM, ref Simmler et al. 2014b, Luethi et al. 2017
5-HT receptors = experiment: Primary binding assay at 10 μM, 5-HT receptors; set-up: species or system Human

Chain of DAT (Homo sapiens, UniProt Q01959) (Q01959 whole entry): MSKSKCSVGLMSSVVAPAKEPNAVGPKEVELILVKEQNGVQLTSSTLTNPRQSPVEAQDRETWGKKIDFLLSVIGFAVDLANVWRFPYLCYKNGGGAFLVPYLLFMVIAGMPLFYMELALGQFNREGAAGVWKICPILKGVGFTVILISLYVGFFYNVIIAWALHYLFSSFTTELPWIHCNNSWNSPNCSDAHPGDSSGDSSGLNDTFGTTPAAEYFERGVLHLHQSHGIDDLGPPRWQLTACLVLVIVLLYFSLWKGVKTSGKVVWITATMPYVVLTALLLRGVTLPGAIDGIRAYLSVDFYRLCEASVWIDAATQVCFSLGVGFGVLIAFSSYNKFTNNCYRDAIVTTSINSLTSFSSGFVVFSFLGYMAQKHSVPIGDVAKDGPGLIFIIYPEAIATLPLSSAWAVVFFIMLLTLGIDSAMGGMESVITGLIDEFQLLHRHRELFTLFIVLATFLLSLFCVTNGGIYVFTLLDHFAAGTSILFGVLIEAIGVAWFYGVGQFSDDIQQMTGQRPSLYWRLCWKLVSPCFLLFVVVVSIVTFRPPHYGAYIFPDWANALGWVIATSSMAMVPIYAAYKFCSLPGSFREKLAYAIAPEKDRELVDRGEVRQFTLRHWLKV
Chain of SERT (P31645 whole entry): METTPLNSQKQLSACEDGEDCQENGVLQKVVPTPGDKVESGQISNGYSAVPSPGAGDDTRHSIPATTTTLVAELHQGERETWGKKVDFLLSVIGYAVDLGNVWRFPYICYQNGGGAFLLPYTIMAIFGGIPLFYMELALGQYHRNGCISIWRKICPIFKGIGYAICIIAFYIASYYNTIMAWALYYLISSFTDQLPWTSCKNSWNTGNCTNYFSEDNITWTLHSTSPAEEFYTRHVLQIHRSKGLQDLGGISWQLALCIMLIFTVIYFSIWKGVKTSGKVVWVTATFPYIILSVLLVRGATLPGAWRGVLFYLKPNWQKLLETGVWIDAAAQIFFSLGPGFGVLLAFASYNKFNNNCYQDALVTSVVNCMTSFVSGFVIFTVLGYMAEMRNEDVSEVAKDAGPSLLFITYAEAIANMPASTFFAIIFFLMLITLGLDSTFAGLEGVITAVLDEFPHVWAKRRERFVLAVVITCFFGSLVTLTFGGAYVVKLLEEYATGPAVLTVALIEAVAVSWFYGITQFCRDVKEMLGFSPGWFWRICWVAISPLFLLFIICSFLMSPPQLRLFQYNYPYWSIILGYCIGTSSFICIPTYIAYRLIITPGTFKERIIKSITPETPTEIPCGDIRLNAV
Chain of 5-HT1B (P28222 whole entry): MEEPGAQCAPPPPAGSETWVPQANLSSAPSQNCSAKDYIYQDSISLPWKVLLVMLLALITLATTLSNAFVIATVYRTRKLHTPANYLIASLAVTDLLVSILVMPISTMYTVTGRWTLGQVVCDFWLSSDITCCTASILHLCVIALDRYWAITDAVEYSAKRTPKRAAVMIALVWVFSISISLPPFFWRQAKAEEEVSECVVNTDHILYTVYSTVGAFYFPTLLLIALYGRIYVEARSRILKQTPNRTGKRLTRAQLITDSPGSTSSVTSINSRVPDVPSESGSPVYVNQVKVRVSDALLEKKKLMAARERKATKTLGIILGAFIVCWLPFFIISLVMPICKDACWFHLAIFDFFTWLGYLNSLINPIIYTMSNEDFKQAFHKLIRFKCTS
Chain of NET (Homo sapiens, UniProt P23975) (P23975 whole entry): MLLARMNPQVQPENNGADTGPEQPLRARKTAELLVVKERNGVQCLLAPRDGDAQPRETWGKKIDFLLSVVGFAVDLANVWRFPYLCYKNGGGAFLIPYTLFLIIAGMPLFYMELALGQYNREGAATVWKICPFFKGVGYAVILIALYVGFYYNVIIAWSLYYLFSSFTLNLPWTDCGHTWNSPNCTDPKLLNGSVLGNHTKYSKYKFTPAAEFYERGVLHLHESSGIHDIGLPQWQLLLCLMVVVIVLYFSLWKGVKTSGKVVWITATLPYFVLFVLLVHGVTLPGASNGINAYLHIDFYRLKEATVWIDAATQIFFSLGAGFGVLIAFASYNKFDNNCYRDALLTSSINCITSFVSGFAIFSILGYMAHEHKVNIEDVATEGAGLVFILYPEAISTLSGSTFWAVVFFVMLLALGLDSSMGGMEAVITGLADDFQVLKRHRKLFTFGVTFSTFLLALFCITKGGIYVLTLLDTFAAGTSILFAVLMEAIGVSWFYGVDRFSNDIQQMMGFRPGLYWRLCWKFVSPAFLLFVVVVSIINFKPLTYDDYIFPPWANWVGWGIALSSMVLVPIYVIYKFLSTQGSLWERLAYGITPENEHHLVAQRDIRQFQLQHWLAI

Row | Compound | release of preloaded [3H]5-HT (SERT) | Ki (5-HT1B) [nM] | fold lower release potency at NET (NET [1]) [fold] | fold difference [3H]5-HT uptake IC50 vs [3H]NE uptake IC50 (NET [2]) [fold] | place conditioning effect (rats; ref Marona-Lewicka et al. 1996) | fold difference [3H]5-HT uptake IC50 vs [3H]DA uptake IC50 (DAT [3]) [fold] | Ki (α2B) [nM] | fold lower affinity for α2B compared to 2-AI (α2B) [fold] | release of preloaded [3H]DA (DAT [4]) | release of preloaded [3H]NE (NET [5]) | displacement at 5-HT receptors (5-HT receptors) [%] | EC50 (DAT [4]; read-out: release of preloaded [3H]DA EC50, ref Eshleman et al. 2017) [nM] | selectivity for 5-HT vs. DA release (SERT; ref Eshleman et al. 2017) | EC50 (SERT; read-out: release of preloaded [3H]5-HT EC50, ref Eshleman et al. 2017) [nM] | EC50 (NET [5]; read-out: release of preloaded [3H]NE EC50, ref Eshleman et al. 2017) [nM] | place conditioning effect (rats; ref Gatch et al. 2016)
1 | COc1cc2c(cc1C)CC(N)C2 (centres unmarked) [MMAI, 5-methoxy-6-methyl-2-aminoindan] | released | 2780 | 100 | 55 | conditioned place aversion | 93 | 1230 | 5 |  |  |  |  |  |  |  | 
2 | NC1Cc2ccccc2C1 [2-AI, 2-aminoindan] |  | > 10000 |  |  |  |  | 211 ± 81 |  | induced the release | induced the release | < 50 |  |  |  |  | 
3 | COc1ccc2c(c1)CC(N)C2 (centres unmarked) [5-MeO-AI, 5-methoxy-2-aminoindan] |  | > 10000 | 6 |  |  |  | 1550 | 5 |  |  |  |  |  |  |  | 
4 | NC1Cc2cc3c(cc2C1)OCO3 [MDAI, 5,6-methylenedioxy-2-aminoindan] | released | > 10000 |  |  |  | 10 | 1120 |  | not affected | released | < 50 | 24000 | ~ 10 fold | 2900 | 570 | conditioned place preference
